Reference: ChEMBL document CHEMBL1139859, “Structures of pahayokolides A and B, cyclic peptides from a Lyngbya sp” (J Nat Prod, 2007)
pIC50: −log10 of the molar value. Starred links: 1 amine or outer side, 2 acyl side, 3 side chain; linkers in the order of their positions; H or OH if unused. Positions of bridges follow the written chain, without caps; N, C: chain ends. Non-standard residues stand in square brackets, D forms with d. Residues, ends and D or L forms follow the SMILES beside them. ξ: configuration not given here. X2 = CC(=O)N(C)[C@@H](CC(C)C)C(=O)O[C@@H](CC(O)C(O)CC(C)C)CC(N[*:2])C(O)C(=O)[*:1]; hPhe = N[C@@H](CCc1ccccc1)C(=O)O; X1 = C/C=C(/N[*:1])C(=O)[*:2]; Dhb = C/C=C(\N)C(=O)O; ξT = CC(O)C(N)C(=O)O

Key:
[1] = tested on: SK-MEL-28; assay: Cytotoxicity against human SK-MEL-28 cells; format: cell-based
[2] = tested on: A498; assay: Cytotoxicity against human A498 cells; format: cell-based
[3] = tested on: NCI-H460; assay: Cytotoxicity against human H460 cells; format: cell-based
[4] = Cytotoxicity against human SKBR3 cells; format: cell-based; settings: SK-BR-3
[5] = tested on: SK-OV-3; assay: Cytotoxicity against human SKOV3 cells; format: cell-based
[6] = tested on: U-251; assay: Cytotoxicity against human U251 cells; format: functional, cell-based
[7] = tested on: CCRF-CEM; assay: Cytotoxicity against human CEM cells; format: cell-based
[8] = tested on: HT-29; assay: Cytotoxicity against human HT29 cells; format: cell-based

Question: Which results are given for `C/C=C1\NC(=O)[C@H](Cc2ccccc2)NC(=O)[C@@H]2CCCN2C(=O)CNC(=O)[C@H](CCC(N)=O)NC(=O)C(O)C(C[C@H](CC(O)C(O)CC(C)C)OC(=O)[C@H](CC(C)C)N(C)C(C)=O)NC(=O)[C@@H]2CCCN2C(=O)[C@H](CCc2ccccc2)NC(=O)C(C(C)O)NC(=O)/C(=C\C)NC(=O)[C@H](CO)NC1=O` (stereo partly drawn) [PAHAYOKOLIDES A] (QGPF[Dhb]S[X1][ξT][hPhe]P; linker N-C via X2)?
Answer: pIC50 [1]: 5.24; pIC50 [2]: 5.58; pIC50 [3]: 5.67; pIC50 [4]: 4.78; pIC50 [5]: 5.56; pIC50 [6]: 4.88; pIC50 [7]: 5.49; pIC50 [8]: 4.35
